Experimental data as given in US20240358692A1, “TREATMENT OF SCLERODERMA” (Aisa Pharma, Inc., priority 2023, published 2024).

System: participants with SSc-RP
Experiment: Frequency of weekly symptomatic RP attacks (patient diary), Phase 2a Part A
Assay type: in vivo, human
Conditions: ITT Part A
From the text: Percent change from baseline evaluation for frequency of weekly RP attacks were or will be used as the primary efficacy variable. The sponsor-developed participant-informed diary will be used to record data. Frequency of weekly RP attacks is defined as the total number of RP attacks divided by the number of days with available diary data within the last 7 days of each dosing period then multiplied by 7. Total number of RP attacks during the last 7 days of screening period divided by the number of days with available data then multiplied by 7 will be used as baseline for the analysis of all periods. The variable will be calculated as follows: […]
Percent change from baseline evaluation for frequency of weekly RP attacks was and will be the primary efficacy endpoint. Frequency of weekly RP attacks is defined as the total number of RP attacks divided by the number of days with available diary data within the last 7 days of each dosing period then multiplied by 7. Total number of RP attacks during the last 7 days of screening period divided by the number of days with available data then multiplied by 7 will be used as baseline for the analysis of all periods.

[1] = Pooled Cilnidipine 20 mg and Cilnidipine 20 mg + Tadalafil 5 mg, n=1, by Baseline RCS, second block (RCS >5.0)
[2] = Pooled Cilnidipine 20 mg and Cilnidipine 20 mg + Tadalafil 5 mg, n=3, by Baseline RCS, first block (RCS <5.0)
[3] = Pooled Cilnidipine 20 mg and Cilnidipine 20 mg + Tadalafil 5 mg, n=4
[4] = Pooled Cilnidipine 20 mg and Cilnidipine 20 mg + Tadalafil 5 mg, n=4, Excluding Outliers
[5] = Pooled Cilnidipine 20 mg and Cilnidipine 20 mg + Tadalafil 5 mg, n=1, excluding outliers, second Baseline RCS subgroup, last 7 days of dosing
[6] = Pooled Cilnidipine 20 mg and Cilnidipine 20 mg + Tadalafil 5 mg, n=3, excluding outliers, first Baseline RCS subgroup, last 7 days of dosing
[7] = Pooled Cilnidipine (10 or 20 mg), n=3
[8] = Pooled Cilnidipine (10 or 20 mg), n=3, Excluding Outliers
[9] = Pooled Cilnidipine (10 or 20 mg), n=3, by Baseline RCS, first block (RCS <5.0)
[10] = Pooled Cilnidipine arms, n=3, excluding outliers, first Baseline RCS subgroup, last 7 days of dosing
[11] = cilnidipine 10 mg daily, n=1, excluding outliers, first Baseline RCS subgroup, last 7 days of dosing
[12] = cilnidipine 20 mg daily, n=2, excluding outliers, first Baseline RCS subgroup, last 7 days of dosing

COCCOC(=O)C1=C(C)NC(C)=C(C(=O)OC/C=C/c2ccccc2)C1c1cccc([N+](=O)[O-])c1 (stereo not drawn) [Cilnidipine]
Weekly Symptomatic RP Attacks Change from Baseline, Mean [1]: −0.50 | Weekly Symptomatic RP Attacks Change from Baseline, Median [1]: −0.50 | Weekly Symptomatic RP Attacks Percent Change from Baseline, Mean [1]: −4.76% | Weekly Symptomatic RP Attacks Percent Change from Baseline, Median [1]: −4.76% | Weekly Symptomatic RP Attacks, Mean [1]: 10.00 | Weekly Symptomatic RP Attacks, Median [1]: 10.00 | Weekly Symptomatic RP Attacks Change from Baseline, Mean [2]: −4.67 | Weekly Symptomatic RP Attacks Change from Baseline, Median [2]: −5.00 | Weekly Symptomatic RP Attacks Percent Change from Baseline, Mean [2]: −31.75% | Weekly Symptomatic RP Attacks Percent Change from Baseline, Median [2]: −28.57% | Weekly Symptomatic RP Attacks, Mean [2]: 9.67 | Weekly Symptomatic RP Attacks, Median [2]: 11.00 | Weekly Symptomatic RP Attacks Change from Baseline, Mean [3]: −3.63 | Weekly Symptomatic RP Attacks Change from Baseline, Median [3]: −3.50 | Weekly Symptomatic RP Attacks Percent Change from Baseline, Mean [3]: −25.00% | Weekly Symptomatic RP Attacks Percent Change from Baseline, Median [3]: −28.17% | Weekly Symptomatic RP Attacks, Mean [3]: 9.75 | Weekly Symptomatic RP Attacks, Median [3]: 10.50 | Weekly Symptomatic RP Attacks Change from Baseline, Mean [4]: −3.63 | Weekly Symptomatic RP Attacks Change from Baseline, Median [4]: −3.50 | Weekly Symptomatic RP Attacks Percent Change from Baseline, Mean [4]: −25.00% | Weekly Symptomatic RP Attacks Percent Change from Baseline, Median [4]: −28.17% | Weekly Symptomatic RP Attacks, Mean [4]: 9.75 | Weekly Symptomatic RP Attacks, Median [4]: 10.50 | Weekly Symptomatic RP Attacks Change from Baseline, Mean [5]: −0.50 | Weekly Symptomatic RP Attacks Change from Baseline, Median [5]: −0.50 | Weekly Symptomatic RP Attacks Percent Change from Baseline, Mean [5]: −4.76% | Weekly Symptomatic RP Attacks Percent Change from Baseline, Median [5]: −4.76% | Weekly Symptomatic RP Attacks, Mean [5]: 10.00 | Weekly Symptomatic RP Attacks, Median [5]: 10.00 | Weekly Symptomatic RP Attacks Change from Baseline, Mean [6]: −4.67 | Weekly Symptomatic RP Attacks Change from Baseline, Median [6]: −5.00 | Weekly Symptomatic RP Attacks Percent Change from Baseline, Mean [6]: −31.75% | Weekly Symptomatic RP Attacks Percent Change from Baseline, Median [6]: −28.57% | Weekly Symptomatic RP Attacks, Mean [6]: 9.67 | Weekly Symptomatic RP Attacks, Median [6]: 11.00 | Weekly Symptomatic RP Attacks Change from Baseline, Mean [7]: −5.33 | Weekly Symptomatic RP Attacks Change from Baseline, Median [7]: −7.00 | Weekly Symptomatic RP Attacks Percent Change from Baseline, Mean [7]: −33.60% | Weekly Symptomatic RP Attacks Percent Change from Baseline, Median [7]: −33.33% | Weekly Symptomatic RP Attacks, Mean [7]: 10.00 | Weekly Symptomatic RP Attacks, Median [7]: 11.00 | Weekly Symptomatic RP Attacks Change from Baseline, Mean [8]: −5.33 | Weekly Symptomatic RP Attacks Change from Baseline, Median [8]: −7.00 | Weekly Symptomatic RP Attacks Percent Change from Baseline, Mean [8]: −33.60% | Weekly Symptomatic RP Attacks Percent Change from Baseline, Median [8]: −33.33% | Weekly Symptomatic RP Attacks, Mean [8]: 10.00 | Weekly Symptomatic RP Attacks, Median [8]: 11.00 | Weekly Symptomatic RP Attacks Change from Baseline, Mean [9]: −5.33 | Weekly Symptomatic RP Attacks Change from Baseline, Median [9]: −7.00 | Weekly Symptomatic RP Attacks Percent Change from Baseline, Mean [9]: −33.60% | Weekly Symptomatic RP Attacks Percent Change from Baseline, Median [9]: −33.33% | Weekly Symptomatic RP Attacks, Mean [9]: 10.00 | Weekly Symptomatic RP Attacks, Median [9]: 11.00 | Weekly Symptomatic RP Attacks Change from Baseline, Mean [10]: −5.33 | Weekly Symptomatic RP Attacks Change from Baseline, Median [10]: −7.00 | Weekly Symptomatic RP Attacks Percent Change from Baseline, Mean [10]: −33.60% | Weekly Symptomatic RP Attacks Percent Change from Baseline, Median [10]: −33.33% | Weekly Symptomatic RP Attacks, Mean [10]: 10.00 | Weekly Symptomatic RP Attacks, Median [10]: 11.00 | Weekly Symptomatic RP Attacks Change from Baseline, Mean [11]: −7.00 | Weekly Symptomatic RP Attacks Change from Baseline, Median [11]: −7.00 | Weekly Symptomatic RP Attacks Percent Change from Baseline, Mean [11]: −33.33% | Weekly Symptomatic RP Attacks Percent Change from Baseline, Median [11]: −33.33% | Weekly Symptomatic RP Attacks, Mean [11]: 14.00 | Weekly Symptomatic RP Attacks, Median [11]: 14.00 | Weekly Symptomatic RP Attacks Change from Baseline, Mean [12]: −4.50 | Weekly Symptomatic RP Attacks Change from Baseline, Median [12]: −4.50 | Weekly Symptomatic RP Attacks Percent Change from Baseline, Mean [12]: −33.73% | Weekly Symptomatic RP Attacks Percent Change from Baseline, Median [12]: −33.73% | Weekly Symptomatic RP Attacks, Mean [12]: 8.00 | Weekly Symptomatic RP Attacks, Median [12]: 8.00
